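Cells were grown in 96-well plates and exposed to each compound for 48 hours at five concentrations; endpoints were interpolated linearly between bracketing concentrations, or set to the highest concentration if not reached. TGI denotes the concentration required for complete inhibition of growth.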
What was measured:
Test in all cases: NCI-60 cell line screen, 48 h
RXF-631 renal = tested on: RXF-631 renal
SW-620 colon = tested on: SW-620 colon
SK-MEL-5 melanoma = tested on: SK-MEL-5 melanoma
KM20L2 colon = tested on: KM20L2 colon
HOP-18 NSCLC = tested on: HOP-18 NSCLC
OVCAR-4 ovarian = tested on: OVCAR-4 ovarian
RXF 393 renal = tested on: RXF 393 renal
COLO 205 colon = tested on: COLO 205 colon
NCI-H522 lung = tested on: NCI-H522 lung
IGROV1 ovarian = tested on: IGROV1 ovarian
HCC-2998 colon = tested on: HCC-2998 colon
HL-60(TB) leukemia = tested on: HL-60(TB) leukemia
MALME-3M melanoma = tested on: MALME-3M melanoma
SN12C renal = tested on: SN12C renal
OVCAR-8 ovarian = tested on: OVCAR-8 ovarian
A498 renal = tested on: A498 renal
DMS 114 small cell lung = tested on: DMS 114 small cell lung
NCI-H460 lung = tested on: NCI-H460 lung
TK-10 renal = tested on: TK-10 renal
SF-295 CNS = tested on: SF-295 CNS
SK-MEL-2 melanoma = tested on: SK-MEL-2 melanoma
SNB-19 CNS = tested on: SNB-19 CNS
MOLT-4 leukemia = tested on: MOLT-4 leukemia
M14 melanoma = tested on: M14 melanoma
CCRF-CEM leukemia = tested on: CCRF-CEM leukemia
A549 NSCLC = tested on: A549 NSCLC
NCI-H226 lung = tested on: NCI-H226 lung
786-0 renal = tested on: 786-0 renal
K-562 leukemia = tested on: K-562 leukemia
UO-31 renal = tested on: UO-31 renal
LOX IMVI melanoma = tested on: LOX IMVI melanoma
DMS 273 small cell lung = tested on: DMS 273 small cell lung
LXFL 529 NSCLC = tested on: LXFL 529 NSCLC
OVCAR-5 ovarian = tested on: OVCAR-5 ovarian
UACC-257 melanoma = tested on: UACC-257 melanoma
OVCAR-3 ovarian = tested on: OVCAR-3 ovarian
ACHN renal = tested on: ACHN renal
U251 CNS = tested on: U251 CNS
CAKI-1 renal = tested on: CAKI-1 renal
M19-MEL melanoma = tested on: M19-MEL melanoma
HCT-116 colon = tested on: HCT-116 colon
HT29 colon = tested on: HT29 colon
SK-MEL-28 melanoma = tested on: SK-MEL-28 melanoma
SR leukemia = tested on: SR leukemia
NCI-H23 lung = tested on: NCI-H23 lung
UACC-62 melanoma = tested on: UACC-62 melanoma
EKVX NSCLC = tested on: EKVX NSCLC
DLD-1 colon = tested on: DLD-1 colon
HOP-62 NSCLC = tested on: HOP-62 NSCLC
SF-268 CNS = tested on: SF-268 CNS
SNB-75 CNS = tested on: SNB-75 CNS
HCT-15 colon = tested on: HCT-15 colon
KM12 colon = tested on: KM12 colon
SK-OV-3 ovarian = tested on: SK-OV-3 ovarian
XF 498 CNS = tested on: XF 498 CNS
SF-539 CNS = tested on: SF-539 CNS
HOP-92 NSCLC = tested on: HOP-92 NSCLC
SNB-78 CNS = tested on: SNB-78 CNS
RPMI-8226 leukemia = tested on: RPMI-8226 leukemia

COc1ccc2cccc(C(=O)c3ccc(C)c4c3CCC4)c2c1
TGI (RXF-631 renal): 43.9 µM | TGI (SW-620 colon): > 100 µM | TGI (SK-MEL-5 melanoma): 36.8 µM | TGI (KM20L2 colon): > 100 µM | TGI (HOP-18 NSCLC): > 100 µM | TGI (OVCAR-4 ovarian): > 100 µM | TGI (RXF 393 renal): 73.5 µM | TGI (COLO 205 colon): 68.3 µM | TGI (NCI-H522 lung): 64.1 µM | TGI (IGROV1 ovarian): 99.2 µM | TGI (HCC-2998 colon): 43.1 µM | TGI (HL-60(TB) leukemia): 44.7 µM | TGI (MALME-3M melanoma): 72.8 µM | TGI (SN12C renal): > 100 µM | TGI (OVCAR-8 ovarian): > 100 µM | TGI (A498 renal): 83.7 µM | TGI (DMS 114 small cell lung): > 100 µM | TGI (NCI-H460 lung): > 100 µM | TGI (TK-10 renal): > 100 µM | TGI (SF-295 CNS): > 100 µM | TGI (SK-MEL-2 melanoma): 98.2 µM | TGI (SNB-19 CNS): > 100 µM | TGI (MOLT-4 leukemia): 97.2 µM | TGI (M14 melanoma): 57.6 µM | TGI (CCRF-CEM leukemia): > 100 µM | TGI (A549 NSCLC): > 100 µM | TGI (NCI-H226 lung): > 100 µM | TGI (786-0 renal): 77.7 µM | TGI (K-562 leukemia): > 100 µM | TGI (UO-31 renal): 82.4 µM | TGI (LOX IMVI melanoma): 38.8 µM | TGI (DMS 273 small cell lung): 70 µM | TGI (LXFL 529 NSCLC): > 100 µM | TGI (OVCAR-5 ovarian): > 100 µM | TGI (UACC-257 melanoma): > 100 µM | TGI (OVCAR-3 ovarian): > 100 µM | TGI (ACHN renal): > 100 µM | TGI (U251 CNS): > 100 µM | TGI (CAKI-1 renal): 80.8 µM | TGI (M19-MEL melanoma): > 100 µM | TGI (HCT-116 colon): > 100 µM | TGI (HT29 colon): > 100 µM | TGI (SK-MEL-28 melanoma): > 100 µM | TGI (SR leukemia): 85.3 µM | TGI (NCI-H23 lung): 77 µM | TGI (UACC-62 melanoma): 56.5 µM | TGI (EKVX NSCLC): > 100 µM | TGI (DLD-1 colon): > 100 µM | TGI (HOP-62 NSCLC): 69.3 µM | TGI (SF-268 CNS): > 100 µM | TGI (SNB-75 CNS): > 100 µM | TGI (HCT-15 colon): 53.3 µM | TGI (KM12 colon): > 100 µM | TGI (SK-OV-3 ovarian): > 100 µM

C[Si](C)(C)/C=C/CCC(C=O)(CCCl)c1ccccc1 (stereo not given)
TGI (SW-620 colon): > 100 µM | TGI (SK-MEL-5 melanoma): 33.9 µM | TGI (KM20L2 colon): > 100 µM | TGI (XF 498 CNS): 36 µM | TGI (HOP-18 NSCLC): 80 µM | TGI (SF-539 CNS): > 100 µM | TGI (RXF 393 renal): 54.6 µM | TGI (COLO 205 colon): 85.4 µM | TGI (NCI-H522 lung): 35.6 µM | TGI (IGROV1 ovarian): > 100 µM | TGI (HCC-2998 colon): > 100 µM | TGI (HL-60(TB) leukemia): > 100 µM | TGI (HOP-92 NSCLC): 89.1 µM | TGI (MALME-3M melanoma): 52.7 µM | TGI (SN12C renal): > 100 µM | TGI (OVCAR-8 ovarian): 87 µM | TGI (A498 renal): > 100 µM | TGI (DMS 114 small cell lung): 54.9 µM | TGI (SNB-78 CNS): 78.9 µM | TGI (NCI-H460 lung): > 100 µM | TGI (TK-10 renal): > 100 µM | TGI (SF-295 CNS): 57.2 µM | TGI (SK-MEL-2 melanoma): 29.7 µM | TGI (SNB-19 CNS): > 100 µM | TGI (MOLT-4 leukemia): 53.8 µM | TGI (M14 melanoma): 86.6 µM | TGI (CCRF-CEM leukemia): > 100 µM | TGI (A549 NSCLC): 98.4 µM | TGI (786-0 renal): 40.8 µM | TGI (K-562 leukemia): > 100 µM | TGI (UO-31 renal): > 100 µM | TGI (LOX IMVI melanoma): 36.2 µM | TGI (DMS 273 small cell lung): 55.2 µM | TGI (LXFL 529 NSCLC): > 100 µM | TGI (OVCAR-5 ovarian): 97.7 µM | TGI (UACC-257 melanoma): 75.8 µM | TGI (OVCAR-3 ovarian): 38.1 µM | TGI (ACHN renal): 73.2 µM | TGI (U251 CNS): 33 µM | TGI (M19-MEL melanoma): > 100 µM | TGI (HCT-116 colon): 32.3 µM | TGI (HT29 colon): 36 µM | TGI (SK-MEL-28 melanoma): > 100 µM | TGI (NCI-H23 lung): > 100 µM | TGI (UACC-62 melanoma): 55.5 µM | TGI (EKVX NSCLC): > 100 µM | TGI (DLD-1 colon): > 100 µM | TGI (SF-268 CNS): > 100 µM | TGI (SNB-75 CNS): 96.6 µM | TGI (HCT-15 colon): 46.1 µM | TGI (KM12 colon): > 100 µM | TGI (SK-OV-3 ovarian): > 100 µM

CCCCc1c2c(nc3c1CCc1cc4c(nc1-3)-c1nc3c(c(CCCC)c1CC4)CCC/C3=C\c1ccccc1)/C(=C/c1ccccc1)CCC2
TGI (SW-620 colon): > 100 µM | TGI (SK-MEL-5 melanoma): > 100 µM | TGI (KM20L2 colon): > 100 µM | TGI (XF 498 CNS): 66.6 µM | TGI (SF-539 CNS): > 100 µM | TGI (RXF 393 renal): 65.4 µM | TGI (COLO 205 colon): > 100 µM | TGI (NCI-H522 lung): > 100 µM | TGI (IGROV1 ovarian): > 100 µM | TGI (HCC-2998 colon): > 100 µM | TGI (HL-60(TB) leukemia): > 100 µM | TGI (HOP-92 NSCLC): > 100 µM | TGI (MALME-3M melanoma): > 100 µM | TGI (SN12C renal): > 100 µM | TGI (OVCAR-8 ovarian): > 100 µM | TGI (A498 renal): > 100 µM | TGI (DMS 114 small cell lung): > 100 µM | TGI (SNB-78 CNS): > 100 µM | TGI (NCI-H460 lung): > 100 µM | TGI (TK-10 renal): > 100 µM | TGI (SF-295 CNS): > 100 µM | TGI (SK-MEL-2 melanoma): > 100 µM | TGI (SNB-19 CNS): > 100 µM | TGI (MOLT-4 leukemia): > 100 µM | TGI (M14 melanoma): > 100 µM | TGI (CCRF-CEM leukemia): > 100 µM | TGI (A549 NSCLC): > 100 µM | TGI (NCI-H226 lung): > 100 µM | TGI (RPMI-8226 leukemia): > 100 µM | TGI (786-0 renal): > 100 µM | TGI (K-562 leukemia): > 100 µM | TGI (UO-31 renal): > 100 µM | TGI (LOX IMVI melanoma): > 100 µM | TGI (DMS 273 small cell lung): > 100 µM | TGI (LXFL 529 NSCLC): > 100 µM | TGI (OVCAR-5 ovarian): > 100 µM | TGI (UACC-257 melanoma): > 100 µM | TGI (OVCAR-3 ovarian): > 100 µM | TGI (U251 CNS): > 100 µM | TGI (CAKI-1 renal): > 100 µM | TGI (M19-MEL melanoma): > 100 µM | TGI (HCT-116 colon): > 100 µM | TGI (HT29 colon): > 100 µM | TGI (SK-MEL-28 melanoma): > 100 µM | TGI (SR leukemia): > 100 µM | TGI (NCI-H23 lung): > 100 µM | TGI (UACC-62 melanoma): > 100 µM | TGI (EKVX NSCLC): > 100 µM | TGI (DLD-1 colon): > 100 µM | TGI (HOP-62 NSCLC): > 100 µM | TGI (SF-268 CNS): > 100 µM | TGI (HCT-15 colon): > 100 µM | TGI (KM12 colon): > 100 µM | TGI (SK-OV-3 ovarian): > 100 µM
